For assay [1], the system named is DMS 53. Briefly: sensitivity of SCLC cell line to ABT-737. The assay is classed as cell-based. As to conditions: Homo sapiens; DMS 53 SCLC cell line; read-out: sensitivity to ABT-737 (EC50 class). As for the experimental part:
(§1) The following SCLC cell lines were obtained from ATCC (Manassis, Va.): NCI-H889, NCI-H1963, NCI-H1417, NCI-H146, NCI-H187, DMS53, NCI-H510, NCI-H1209, NCI-H526, NCI-H211, NCI-H345, NCI-H524, NCI-H69, NCI-H748, DMS79, NCI-H711, SHP77, NCI-446, NCI-H1048, NCI-H82, NCI-H196, SW1271, H69AR. All cells were cultured in the ATCC recommended media at 37° C. in a humidified atmosphere containing 5% CO2. Genomic DNA was isolated from the cell lines using a DNAeasy kit (Qiagen, Valencia, Calif.).
(§2) The 23 SCLC cell lines were tested for sensitivity to ABT-737 using the procedure described in Oltersdorf, T., “An inhibitor of Bcl-2 family proteins induces regression of solid tumours”, Nature, 435: 677-681, 2005, with a cell line classified as sensitive if its EC50<1 μM and as resistant if its EC50>10 μM. The sensitive cell line group consisted of NCI-H889, NCI-H1963, NCI-H1417, NCI-H146, NCI-H187, DMS 53, NCI-H510, NCI-H209, NCI-H526, NCI-H211, NCI-H345, and NCI-H524 and the resistant cell line group was comprised of NCI-H82, NCI-H196, SW1271, and H69AR.

For assay [2], the system named is H69AR. Briefly: sensitivity of SCLC cell line to ABT-737. It is filed as cell-based. As to conditions: Homo sapiens, read-out: sensitivity to ABT-737 (EC50 class). As for the experimental part:
as §1, §2

For assay [3], the system named is NCI-H1417. Briefly: sensitivity of SCLC cell line to ABT-737. The assay is classed as cell-based. Conditions: Homo sapiens, read-out: sensitivity to ABT-737 (EC50 class). The procedure: as §1, §2
The subject of assay [4] is NCI-H146. Briefly: sensitivity of SCLC cell line to ABT-737. Conditions: Homo sapiens, read-out: sensitivity to ABT-737 (EC50 class). The assay is classed as cell-based. As for the experimental part:
as §1, §2

The test system of assay [5] is NCI-H187. Briefly: sensitivity of SCLC cell line to ABT-737. It is filed as cell-based. As to conditions: Homo sapiens, read-out: sensitivity to ABT-737 (EC50 class). As for the experimental part: as §1, §2
For assay [6], the system named is NCI-H1963. Briefly: sensitivity of SCLC cell line to ABT-737. The assay is classed as cell-based. As to conditions: Homo sapiens, read-out: sensitivity to ABT-737 (EC50 class). The procedure:
as §1, §2

In assay [7] the test system is NCI-H196. Briefly: sensitivity of SCLC cell line to ABT-737. It is filed as cell-based. As to conditions: Homo sapiens, read-out: sensitivity to ABT-737 (EC50 class). The procedure:
as §1, §2

The test system of assay [8] is NCI-H209. Briefly: sensitivity of SCLC cell line to ABT-737. The assay is classed as cell-based. As to conditions: Homo sapiens, read-out: sensitivity to ABT-737 (EC50 class). As for the experimental part:
as §1, §2

Assay [9] deals with NCI-H211. Briefly: sensitivity of SCLC cell line to ABT-737. The assay is classed as cell-based. Conditions: Homo sapiens, read-out: sensitivity to ABT-737 (EC50 class). The procedure:
as §1, §2

The subject of assay [10] is NCI-H345. Briefly: sensitivity of SCLC cell line to ABT-737. Conditions: Homo sapiens, read-out: sensitivity to ABT-737 (EC50 class). The assay is classed as cell-based. The procedure: as §1, §2
In assay [11] the test system is NCI-H510. Briefly: sensitivity of SCLC cell line to ABT-737. It is filed as cell-based. Conditions: Homo sapiens, read-out: sensitivity to ABT-737 (EC50 class). The procedure: as §1, §2
Assay [12] has as its system NCI-H524. Briefly: sensitivity of SCLC cell line to ABT-737. As to conditions: Homo sapiens, read-out: sensitivity to ABT-737 (EC50 class). The assay is classed as cell-based. As for the experimental part: as §1, §2
Assay [13] concerns NCI-H526. Briefly: sensitivity of SCLC cell line to ABT-737. It is filed as cell-based. As to conditions: Homo sapiens, read-out: sensitivity to ABT-737 (EC50 class). The procedure:
as §1, §2

Assay [14] deals with NCI-H82. Briefly: sensitivity of SCLC cell line to ABT-737. The assay is classed as cell-based. As to conditions: Homo sapiens, read-out: sensitivity to ABT-737 (EC50 class). As for the experimental part: as §1, §2
Assay [15] concerns NCI-H889. Briefly: sensitivity of SCLC cell line to ABT-737. As to conditions: Homo sapiens, read-out: sensitivity to ABT-737 (EC50 class). It is filed as cell-based. The procedure:
as §1, §2

Assay [16] relates to SW1271. Briefly: sensitivity of SCLC cell line to ABT-737. It is filed as cell-based. As to conditions: Homo sapiens, read-out: sensitivity to ABT-737 (EC50 class). The procedure:
as §1, §2

Assay [17] relates to solid tumors. Conditions: from Oltersdorf, Nature 435: 677-681, 2005; cited from earlier work.
Assay [18] deals with SCLC and lymphoma cell lines. As to conditions: from Oltersdorf, Nature 435: 677-681, 2005; cited from earlier work.

Regarding `CN(C)CC[C@H](CSc1ccccc1)Nc1ccc(S(=O)(=O)NC(=O)c2ccc(N3CCN(Cc4ccccc4-c4ccc(Cl)cc4)CC3)cc2)cc1[N+](=O)[O-]` [ABT-737, N-(4-(4-((4′-chloro(1,1′-biphenyl)-2-yl)methyl)piperazin-1-yl)benzoyl)-4-(((1R)-3-(dimethylamino)-1-((phenylsulfanyl)methyl)propyl)amino)-3-nitrobenzenesulfonamide], the EC50 in assay [1] is less than 1000 nM; in assay [2], greater than 10000 nM; in [3] it was less than 1000 nM; in assay [4] it was less than 1000 nM; in assay [5], less than 1000 nM; in [6] it was less than 1000 nM. Further, the EC50 in assay [7] is greater than 10000 nM; in assay [8] it was less than 1000 nM; in assay [9], less than 1000 nM; in assay [10], less than 1000 nM; in assay [11], less than 1000 nM; in assay [12], less than 1000 nM. Moreover, the EC50 in assay [13] was less than 1000 nM; in [14], greater than 10000 nM; in [15], less than 1000 nM; in assay [16], greater than 10000 nM. The “effect on solid tumors” value in [17] is “induce regression of solid tumors”. Besides, the “potency against a diverse panel of human cancer cell lines” value in [18] was “selective potency against SCLC and lymphoma cell lines”.

Source of the values: patent US20080193943A1, “Companion diagnostic assays for cancer therapy” (ABBOTT LABORATORIES, priority 2006, published 2008).
